This note sets out measurements from PubChem BioAssay (NCI).

For this test, the system named is MDA-MB-468 breast. Nature of the test: DTP human tumour cell line panel, 48 h.

Where “and” joins values, the source holds several entries; their conditions need not be identical. Identical values can stand only once.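 Method: 48-hour compound exposure of cells in 96-well plates, five concentrations, linear interpolation of endpoints. The concentration for 50% growth inhibition is given as GI50. TGI: concentration producing complete growth inhibition.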

Usually GI50 stands for the concentration that inhibits growth by half. Broadly, the TGI is the concentration at which net growth stops. Read a high TGI as less potent growth arrest. Consider `O=P([O-])(O)OP(=O)([O-])O.[NH-][C@H]1CCCC[C@@H]1[NH-].[OH-].[OH-].[Pt+4]`, for which the GI50 was 18.8 µM and the TGI came out at 39.9 µM.
Taken in the same sequence, the figures for `O=S(=O)(Nc1ncccn1)c1ccc(N=Nc2ccc(O)c3ncccc23)cc1` were 8.83 µM and 31.2 µM.
Taken in the same sequence, the figures for `C[n+]1c(/C=C\C=C\N2CCCCC2)sc2ccccc21` were 0.238 µM and 3.8 µM.
As to `CN1CCc2cc3c(cc2C1O)OCO3` (stereo not given), the GI50 is 16 µM and > 100 µM; the concentration for total growth inhibition (TGI) is 34.4 µM and > 100 µM.
For the molecule `CN1CCN(c2ccc(C(=O)Nc3n[nH]c4ccc(Cc5cc(F)cc(F)c5)cc34)c(NC3CCOCC3)c2)CC1`, the GI50 is 1.35 µM; the TGI is 3.09 µM and 2.91 µM.
For the molecule `CO[C@H](C(=O)[C@@H](O)[C@@H](C)O)[C@@H]1Cc2cc3cc(O[C@H]4C[C@@H](O[C@H]5C[C@@H](O)[C@H](O)C(C)O5)[C@H](O)C(C)O4)c(C)c(O)c3c(O)c2C(=O)[C@H]1O[C@H]1C[C@@H](O[C@H]2C[C@@H](O[C@H]3C[C@@H](OC)[C@H](O)C(C)O3)[C@@H](O)C(C)O2)C(O)(O)C(C)O1` (stereo not given in full), the GI50 is 0.138 µM and the TGI was determined as 1.17 µM.
On to `C=C1C(=O)O[C@H]2[C@H]1CC/C(CNC(=O)/C=C/c1ccc(Br)cc1)=C\CC[C@@]1(C)O[C@@H]21`, for which the 50% growth inhibitory concentration (GI50) was 0.391 µM and the TGI turned out to be 1.67 µM.
On to `C=CC(=O)Nc1ccc(Nc2nccc(-c3ccc(N4CCCC4)c(C#N)c3)n2)cc1`, for which the GI50 is 7.43 µM and the concentration for total growth inhibition (TGI) is greater than 25 µM.
Taken in the same sequence, the figures for `Cc1c2cnccc2c(C)c2c1c1cc(C3OCCCO3)ccc1n2C` were 0.26 µM and 0.928 µM.
For `COc1cc(/C(Cl)=C/C=C/C(=O)c2c(C)[n+]([O-])c3ccc(Cl)cc3[n+]2[O-])cc(OC)c1OC` the same measures were 1.87 µM and 9.29 µM.
For `O=[N+]([O-])c1ccc(Nc2ccccc2-c2ccccc2)c2nonc12` the same measures were 5.2 µM and 30.5 µM.
In the case of `COC(=O)[C@@H](NC(=O)NC(=O)NC(=O)CI)C(C)C`, the GI50 is 3.89 µM and the concentration for total growth inhibition (TGI) came out at 16 µM.
Take `COC1=CC(c2ccc[nH]2)=N/C1=C\c1[nH]c(C)c(C(=O)OCc2ccccc2)c1C`: the GI50 is 0.0584 µM and the TGI stood at 0.73 µM.
Turning to `CC/C(Cc1ccccc1)=C(\c1ccc(OCCN2CCCCCC2)cc1)c1ccc(OC(=O)NCc2ccccc2)cc1`, the GI50 is 2.03 µM and the TGI is 8.15 µM.
Regarding `Cc1ccc(C(=O)N(CCCN)[C@@H](c2nc3cc(Cl)ccc3c(=O)n2Cc2ccccc2)C(C)C)cc1`, the GI50 is less than 0.01 µM and the TGI was less than 0.01 µM.
In the case of `CN(C)CCCOc1ccccc1NC1=C(Cl)C(=O)C(Nc2ccccc2OCCCN(C)C)=C(Cl)C1=O`, the GI50 is 0.175 µM and the concentration for total growth inhibition (TGI) worked out at 0.352 µM.
As for `Cc1[nH]ncc1-c1cc2nc(C3CC4CCN3CC4)[nH]c(=O)c2s1` (stereo not given), the GI50 was 9.05 µM and the TGI is 32.2 µM.
Regarding `CC(C)[C@](O)(c1ccc2cc(OC(F)F)c(OC(F)F)cc2c1)c1cn[nH]n1`, the GI50 was 20.9 µM and 14.2 µM; the concentration for total growth inhibition (TGI) is 57.6 µM and 41.3 µM.
Consider `Cc1nc2ccc(CN(C)c3ccc(C(=O)N[C@@H](CCC(=O)O)C(=O)O)s3)cc2c(=O)[nH]1`, for which the GI50 was 0.0578 µM and the total growth inhibition concentration (TGI) was greater than 100 µM.
Regarding `CNC(=O)c1cc(COc2nnc(Nc3ccc(Cl)cc3)c3ccoc23)ccn1`, the GI50 is 6.94 µM and > 10 µM; the TGI is 30.9 µM and > 10 µM.
`COc1ccc(-c2[nH]ncc2-c2cc3c(c(OC)c2)OCC(=O)N3)cc1`: the 50% growth inhibitory concentration (GI50) was 0.354 µM and the TGI stood at 28.4 µM.
Taken in the same sequence, the figures for `Cc1cc(C)nc(NC(N)=NCCc2ccccc2)n1` were 1.91 µM and 8.95 µM.
For `O=C(/C=C/c1ccc(B(O)O)cc1)/C=C/c1ccc(B(O)O)cc1` the same measures were 1.72 µM and 4.34 µM.
`COc1cc2c(cc1OCCCN1CCN(CCCOc3cc4c(cc3OC)C(=O)N3CCC[C@H]3C=N4)CC1)C=CC(C)(C)O2`: the GI50 was 0.469 µM and the TGI came to 2.45 µM.
Taken in the same sequence, the figures for `CC1=C([Se]CC(OC(=O)[C@@H](CSSC(C)(C)C)NC(=O)OC(C)(C)C)C(=O)NC(C)(C)C)C(=O)c2ccccc2C1=O` (stereo not given in full) were 1.66 µM and 3.77 µM.
Taken in the same sequence, the figures for `Cc1ccccc1NC(=S)Nc1ccccn1` were 11.8 µM and 81.2 µM.
For the molecule `Nc1ccn(C2OC(CO)C(O)C2F)c(=O)n1` (stereo not given), the GI50 is greater than 5000 µM and the TGI was greater than 5000 µM.
`COc1cc(-c2nn3c(/C=C4/C(=O)Nc5ccccc54)c(-c4ccc(C)cc4)nc3s2)cc(OC)c1OC`: the GI50 is 4.84 µM and the TGI worked out at 30.6 µM.
Taken in the same sequence, the figures for `COc1cc(C(=O)OCCCCCCCCCCC[P+](c2ccccc2)(c2ccccc2)c2ccccc2)ccc1O` were 0.284 µM and 1.09 µM.
For `FC(F)(F)c1ccc(-c2nc(-c3nc4cc(Cl)c(Cl)cc4[nH]3)c3ccccn23)cc1` the same measures were 3.05 µM and greater than 100 µM.
For `Cc1c2cc[nH]c(=O)c2c(C)c2c1[nH]c1cc(OCCN3CCN(C)CC3)ccc12` the same measures were 0.355 µM and 1.87 µM.
As for `Cn1ccnc1C(=O)/C=C/c1ccc(NC(=O)c2ccc(F)cc2)cc1`, the GI50 was 2.87 µM and the TGI worked out at 15.9 µM.
Taken in the same sequence, the figures for `OCC1OC(c2scc3c(=S)nc[nH]c23)C(O)C1O` (stereo not given) were 8.39 µM and greater than 100 µM.
For `Cn1cc(-c2nonc2-c2c[nH]c3ccccc23)c2ccccc21` the same measures were 0.304 µM and 3.12 µM.
With `CC(=O)C1=C(O)C=C2Oc3c(C(=O)/C=C/c4cc(C(F)(F)F)cc(C(F)(F)F)c4)c(O)c(C)c(O)c3[C@]2(C)C1=O`, the GI50 is 1.29 µM and the TGI amounted to 4.46 µM.
